Calls of active or inactive are those of the source. The calls are words filed in the database; no cut-off is given here.

For one experiment, the system named is Leishmania donovani. As to the kind of experiment: Antileishmanial activity against Leishmania donovani MHOM/IN/80/Dd8 amastigotes infected in golden hamster assessed as inhibition of parasite growth at 50 mg/kg, ip for 5 days post infection measured on day 7 by Giemsa staining. The format is functional.
Conditions: not given
As to Sodium stibogluconate, the growth inhibition (GI) was 89%.
Consider `CC1=CCCC(C)(C)C1/C=C/c1cc(C(=O)N2CCN(c3ccccc3)CC2)no1` (stereo not given), for which the “growth inhibition (GI)” value was “inactive”.
Same read-out and setting: the same measure for `CC1=CCCC(C)(C)C1/C=C/c1cc(C(=O)N2CCOCC2)no1` (stereo not given): “inactive”; for `CCOC(=O)C(=O)CC(=O)/C=C/C1C(C)=CCCC1(C)C` (stereo not given): “inactive”.

Still in this experiment, the particulars now being: Leishmania donovani, MHOM/IN/80/Dd8, ip, route intraperitoneal, read-out: GI.
Consider `CC1=CCCC(C)(C)C1/C=C/c1cc(C(=O)NO)no1` (stereo not given), for which the inhibition in vivo at 50 mg/kg was 65%.
`CCOC(=O)c1cc(/C=C/C2C(C)=CCCC2(C)C)on1` (stereo not given): the inhibition in vivo at 50 mg/kg turned out to be 76%.
Same read-out and setting: the same measure for `NC[C@@H]1O[C@H](O[C@H]2[C@@H](O)[C@H](O[C@@H]3[C@@H](O)[C@H](N)C[C@H](N)[C@H]3O[C@H]3O[C@H](CO)[C@@H](O)[C@H](O)[C@H]3N)O[C@@H]2CO)[C@H](N)[C@@H](O)[C@@H]1O` [PAROMOMYCIN]: 46.7%; for `CC1=CCCC(C)(C)C1/C=C/c1cc(C(=O)O)no1` (stereo not given): 45%; for `CC1=CCCC(C)(C)C1/C=C/c1cc(C(=O)Nc2ccccc2)no1` (stereo not given): 74%.
As for `CC1=CCCC(C)(C)C1/C=C/c1cc(C(=O)Nc2ccc(Cl)cc2)no1` (stereo not given), the inhibition in vivo at 50 mg/kg was 63%.
On the same count and under the same terms, the same measure for `CC1=CCCC(C)(C)C1/C=C/c1cc(C(=O)NN)no1` (stereo not given): 50%; for `CC1=CCCC(C)(C)C1/C=C/c1cc(C(=O)NC2CCCCC2)no1` (stereo not given): 70%.
The same measure, in the same setting: then `COc1ccc(NC(=O)c2cc(/C=C/C3C(C)=CCCC3(C)C)on2)cc1` (stereo not given), with 58%.

Staying with this experiment, now noted: route intraperitoneal.
`CC1=CCCC(C)(C)C1/C=C/c1cc(C(=O)N[O-])no1.[Na+]` (stereo not given): the “growth inhibition (GI)” value is recorded as 71%.
On the same count and under the same terms, the same measure for `CC1=CCCC(C)(C)C1/C=C/c1cc(C(=O)[N-]N)no1.[Na+]` (stereo not given): 70%.

Source of the values: ChEMBL document CHEMBL2157967, “Chemotherapy of leishmaniasis. Part XI: synthesis and bioevaluation of novel isoxazole containing heteroretinoid and its amide derivatives” (2012).
